This note sets out measurements from patent US7601687B2, “Mechanism for identifying drugs for the treatment of type II diabetes” (BioCrine AB, priority 2006, dated 2009).

For assay [1], the system named is βGK mRNA. The assay can be described thus: Endogenous βGK mRNA levels in isolated islets of wild type and βIRKO mice. Type of assay: cell-based, mouse. As to conditions: 16.7 mM glucose or 5 mU insulin/ml. As to the method: (§1) RNA was prepared 60 min after start of stimulation. Amounts of insulin, βGK and β-actln mRNA were quantified by comparative RT-PCR. […] Data are shown as mean values ± S.E. (n=3). (B-D) On-line monitoring of βGK promoter-driven GFP expression (white bars) and insulin promoter-driven DsRed expression (black bars) in co-transfected HIT cells (B,C) or islet cells (B,D).
(§2) Insulin-producing HIT-T15 cells were obtained from ATCC. HIT cells were reported to show glucose responsiveness at subphysiological concentrations between 0.1 and 2 mM (Sharma et al., 1995). HIT cells were grown in RPMI 1640 medium supplemented with 100 units/ml penicillin, 100 μg/ml streptomycin, 2 mM glutamine and 10% fetal calf serum at 5% CO2 and 37° C. Pancreatic islets were isolated from normally fed male Wistar rats and from mice by collagenase digestion. […]
(§3) RNA Analysis Levels of βGK mRNA were analyzed by RNase-protection assays and comparative RT-PCR. […] Quantification of the protected complexes was performed by phosphorimaging. […] Levels of μGK mRNA were analyzed by RT-PCR using primers 5′-[…]-3′(SEQ ID NO: 1) and 5′-[…]-3′(SEQ ID NO: 2) for characterizing μGK mRNA in HIT cells and primers 5′-[…]-3′(SEQ ID NO: 3) and 5′-[…]-3′(SEQ ID NO: 4) for μGK mRNA in rat and mouse pancreatic islets and islet cells. Levels of μ-actin mRNA were analyzed by RT-PCR using primers 5′-[…]-3′(SEQ ID NO: 5) and 5′-[…]-3′(SEQ ID NO: 6). […]

In assay [2] the test system is insulin mRNA. The assay can be described thus: Endogenous insulin mRNA levels in isolated islets of wild type and βIRKO mice. Type of assay: cell-based, mouse. As to conditions: 16.7 mM glucose or 5 mU insulin/ml. As to the method: as §1, §2, §3

Turning to insulin, the “endogenous βGK mRNA levels upon stimulation” value in assay [1] (islets from βIRKO mice) is “no increase”; in assay [1] (islets of wild type mice), “increase”. For the same substance, the results for the “endogenous insulin mRNA levels upon stimulation” value in assay [2] (islets from βIRKO mice) and in assay [2] (islets of wild type mice) were “no increase” and “increase”, respectively.
